Experimental data from patent US20090305994A1, “Compounds Modulating Vegf Receptor and Uses Thereof” (priority 2005, published 2009).
Blank lines part the entries; values can stand above or below the molecule they belong to. No end group written: not given here.

How the values were obtained:
HUVEC [1] = assay: Analysis of caspase 3 activity in HUVEC deprived of FBS; assay type: cell-based, human; conditions: VEGF 20 ng/ml plus peptide 20 ng/ml, 4 h
Method: HUVE cells (1×10^4/cm2) were incubated in medium without FBS, in the absence or presence of VEGF (20 ng/ml) and QK (5 ng/ml), at 37° C. in a 5% CO2 atmosphere. After 4 h, caspase 3 activity was determined. Results are expressed as mean values of triplicates.
HUVE cells (1×10^4/cm2) were incubated in medium without FBS, in the absence or presence of VEGF (20 ng/ml) and the indicated peptides (20 ng/ml), at 37° C. in a 5% CO2 atmosphere. After 4 h, caspase 3 activity was determined. Results are expressed as mean values of triplicates.
(§1) Analysis of caspase 3 activity—Cells (2×104) were lysed in a buffer containing Hepes 50 mM, DTT 1 mM, EDTA 0.1 mM, NP-40 0.1%, CHAPS 0.1% and protein quantitation determined. Protein aliquots (20 μg) were incubated with 20 μM Ac-DEVD-AMC (Pharmingen, San Diego, Calif.) in a buffer containing Hepes 50 mM, DTT 1 mM, EDTA 0.1 mM, NP-40 0.1%, CHAPS 0.1%, at 37° C. for 3 h. Caspase 3 activity was determined in the cytosolic extracts by analysing the release of 7-amino-4-methylcoumarin (AMC) from N-acetyl-DEVD-AMC (Thornberry N A, et al. Nature 1992; 356:768-74); the release of AMC was monitored in a spectrofluorometer with an excitation wavelength of 380 nm and emission wavelength of 440 nm.
as §1, with “356: 768-74);” for “356:768-74);”

HUVEC cells = assay: Binding of fluorescein-conjugated MA peptide to HUVEC cells (flow cytometry); design: species or system human
Method: HUVE cells (1×10^4/cm2) were incubated with 500 nM MA peptide conjugated with fluorescein and competed with increasing amount of VEGF at 30 min at 4° C. in the dark. Then, cell fluorescence was analyzed by flow cytometry.
(§2) Fluorescence—Cells (3×105) were incubated with saturating amounts of FITC-conjugated and the other indicated reagents, 5 min at 4° C. in the dark. After washing with PBS, the cells were resuspended in PBS and analyzed with a FACScan (Becton Dickinson) flow cytometer.
Binding of MA peptide to HUVEC cells. To verify that MA peptide bound to HUVEC cells, we incubated the cells with MA or a scrambled peptide conjugated with fluorescein and analyze the binding by FACS.

ERK1/2 kinase = assay: VEGF-induced activation of ERK kinase in HUVEC (western blot); assay type: cell-based, human; conditions: VEGF 20 ng/ml plus MA 100 ng/ml, 30 min
Method: (§3) (a) HUVE cells (1×10^4/cm2) were incubated whit VEGF (20 ng/ml) in the absence or presence of MA peptide (100 ng/ml), in duplicates, for 30 min. Then cell lysates were obtained and analysed in Western blot with anti-phospho-ERK antibody. b) HUVE cells (1×10^4/cm2) were incubated with VEGF (20 ng/ml) in the absence or presence of MA peptide (100 ng/ml), in triplicates, for 24 h, at 37° C. in a 5% CO2 atmosphere. Then FITC-Annexin V binding was analyzed by flow cytometry.
Western blotting. Cell total protein lysates were prepared in sample buffer (2% sodium-dodecyl-sulphate, 10% glycerol, 2% mercaptoethanol and 60 mM Tris-HCl pH 6.8 in demineralized water) on ice. Lysates (25 μg) were run on 12% SDS-PAGE gels and electrophoretically transferred to nitrocellulose. Nitrocellulose blots were blocked with 5% BSA in Tris Buffer Saline Tween-20 (TBST) buffer [20 mM Tris-HCl (pH 7.4), 500 mM NaCl, and 0.01% Tween 20] and incubated with primary antibody in TBST-5% BSA overnight at 4° C. Immunoreactivity was detected by sequential incubation with horseradish peroxidase-conjugated secondary antibody and enhanced chemiluminescence reagents following standard protocols (Amersham Bioscience, UK).
Inhibition of VEGF-induced activation of ERK kinase by MA peptide. […] We therefore investigated whether MA peptide binding to the cells could block ERK activation by VEGF.

HUVEC [2] = assay: FITC-Annexin V binding of HUVEC by flow cytometry; assay type: cell-based, human; conditions: HUVEC 24 h, VEGF 20 ng/ml plus MA peptide 100 ng/ml
Method: as §3, §2
Effect of MA peptide on the appearance of annexin V+ cells in cultures with VEGF. Apoptotic cells externalize phosphatidylserine, that is bound by annexin V (Steensma D P, et al., Methods Mol. Med. 2003; 85: 323-32).

KDR = target: T1, KDR (Bos taurus, UniProt A0AAA9SPC9); assay: KDR activation (immunoprecipitation, phospho-tyrosine western blot) in BAEC; assay type: cell-based, bovine; conditions: 15 minutes of exposure
T1 construct: we immunoprecipitated total KDR and Flt-1 from BAEC whole extracts; endogenous in cells; host or cells: BAEC (bovine aorta endothelial cells, SV40-immortalized)
Method: (§4) VEGF receptors binding and activation. a) VEGF competitive binding on BAEC. 1 μg of membrane protein was plated with QK and [^125I]-VEGF (500000 cpm, 10^−10 M). b) KDR activation. After stimulation total KDR was immunoprecipitated from a whole-cell protein extracts and phospho-tyrosine was visualized by a specific antibody, anti-rabbit HRP-conjugated secondary antibody and standard chemiluminescence. c) Flt-1 activation. After stimulation total Flt-1 was immunoprecipitated from a whole-cell protein extracts and phospho-tyrosine was visualized by specific antibody, anti-rabbit HRP-conjugated secondary antibody and standard chemiluminescence.
(§5) Western blot. Cells were plated on six-well dishes and serum starved overnight. On the next day, cells were treated with different amount of peptide in absence or in presence of VEGF165 for 15 minutes at 37° C. and then dissolved in RIPA-SDS buffer (50 mM Tris-HCl (pH 7.5), 150 mM NaCl, 1% NP-40, 0.25% deoxycholate, 9.4 mg/50 ml sodium orthovanadate, […]). In some experiments, total KDR and Flt-1 were immunoprecipitated from an equal amount of whole-cell protein extracts using protein A/G agarose beads conjugated with antibodies raised against total KDR or Flt-1 (R&D). Proteins from whole-cell extracts or immunocomplexes were resolved by PAGE and transferred to nitrocellulose. […]

Flt-1 = target: T2, Flt-1 (Bos taurus, UniProt F1MDD9); assay: Flt-1 activation (immunoprecipitation, phospho-tyrosine western blot) in BAEC; assay type: cell-based, bovine; conditions: 15 minutes of exposure
T2 construct: we immunoprecipitated total KDR and Flt-1 from BAEC whole extracts; endogenous in cells; host or cells: BAEC (bovine aorta endothelial cells, SV40-immortalized)
T2 sequence (F1MDD9 1-1251): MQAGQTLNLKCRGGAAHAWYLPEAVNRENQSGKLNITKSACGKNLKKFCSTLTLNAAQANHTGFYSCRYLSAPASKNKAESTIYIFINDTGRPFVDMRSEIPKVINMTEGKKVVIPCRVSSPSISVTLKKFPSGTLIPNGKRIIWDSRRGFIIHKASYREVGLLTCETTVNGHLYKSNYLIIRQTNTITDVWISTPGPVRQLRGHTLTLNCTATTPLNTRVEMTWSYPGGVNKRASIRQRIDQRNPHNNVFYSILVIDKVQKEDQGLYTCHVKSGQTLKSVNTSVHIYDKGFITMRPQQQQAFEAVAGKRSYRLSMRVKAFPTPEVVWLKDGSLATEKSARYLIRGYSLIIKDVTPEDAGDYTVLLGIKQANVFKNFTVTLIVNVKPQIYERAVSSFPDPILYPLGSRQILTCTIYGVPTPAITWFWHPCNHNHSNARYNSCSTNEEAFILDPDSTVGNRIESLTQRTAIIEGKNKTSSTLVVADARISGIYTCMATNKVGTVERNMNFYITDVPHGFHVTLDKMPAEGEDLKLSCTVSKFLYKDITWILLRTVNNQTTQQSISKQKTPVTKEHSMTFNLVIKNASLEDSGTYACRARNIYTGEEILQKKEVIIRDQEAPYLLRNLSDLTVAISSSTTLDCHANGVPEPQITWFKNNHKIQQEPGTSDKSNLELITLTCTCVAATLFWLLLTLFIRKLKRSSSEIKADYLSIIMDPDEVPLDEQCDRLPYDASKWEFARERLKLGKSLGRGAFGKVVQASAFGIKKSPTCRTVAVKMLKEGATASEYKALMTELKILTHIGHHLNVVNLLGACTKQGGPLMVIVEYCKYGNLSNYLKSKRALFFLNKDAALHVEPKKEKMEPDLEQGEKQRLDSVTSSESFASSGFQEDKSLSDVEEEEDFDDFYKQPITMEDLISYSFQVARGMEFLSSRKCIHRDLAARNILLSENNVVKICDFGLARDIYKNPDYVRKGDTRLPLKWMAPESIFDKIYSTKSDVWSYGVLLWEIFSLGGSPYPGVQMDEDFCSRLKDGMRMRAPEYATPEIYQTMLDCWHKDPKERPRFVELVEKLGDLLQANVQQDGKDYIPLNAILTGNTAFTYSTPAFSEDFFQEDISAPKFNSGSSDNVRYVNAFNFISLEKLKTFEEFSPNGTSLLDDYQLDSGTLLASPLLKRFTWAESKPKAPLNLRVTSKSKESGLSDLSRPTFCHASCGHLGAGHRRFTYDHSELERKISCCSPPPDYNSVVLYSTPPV
Method: as §4, §5

RB = RB phosphorylation (western blot); assay type: cell-based, bovine; conditions: 12 and 18 hours; QK 10^-6 M, VEGF165 100 ng/ml, VEGF 15 10^-6 M
Method: Effect of QK on cell proliferation. a) DNA synthesis. BAEC were incubated in DMEM with [^3H]-thymidine and QK in absence or in presence of VEGF165 (100 ng/ml). After 24 hours cells were fixed and lysed. Scintillation liquid was added and [^3H]-thymidine incorporation was evaluated. b) Cell proliferation. BAEC were stimulated with the indicated amount of QK in absence or in presence of VEGF165 (100 ng/ml). Cell number was determined at 24 hours after stimulation. c) RB phosphorylation. p-RB was evaluated at 12 and 18 hours after stimulation with QK (10^-6M), VEGF165 (100 ng/ml) and VEGF 15 (10^−6 M).
Cells proliferation assay. Cells were seeded at a density of 10000 per well in six well plates, serum starved overnight and then stimulated with QK (10-12 to 10^−6 M) in absence or in presence of VEGF165. Cell number was determined at 24 hours after stimulation. The p-RB, was evaluated by western blot 12 and 18 hours after stimulation with QK (10^−6 M), VEGF165 and VEGF 15 (10^−6 M).

WKY rats = assay: Ischemic hindlimb model, digital angiographies and blood flow determination; assay type: in vivo, rat; conditions: 14 days
[3] = target: VEGF receptors on bovine aorta endothelial cell (BAEC) membranes; assay: displacement of [125I]-VEGF from BAEC membranes (1 ug membrane protein) by QK at 10^-13 to 10^-8 M, gamma counter

T1 sequence (A0AAA9SPC9 20-1356): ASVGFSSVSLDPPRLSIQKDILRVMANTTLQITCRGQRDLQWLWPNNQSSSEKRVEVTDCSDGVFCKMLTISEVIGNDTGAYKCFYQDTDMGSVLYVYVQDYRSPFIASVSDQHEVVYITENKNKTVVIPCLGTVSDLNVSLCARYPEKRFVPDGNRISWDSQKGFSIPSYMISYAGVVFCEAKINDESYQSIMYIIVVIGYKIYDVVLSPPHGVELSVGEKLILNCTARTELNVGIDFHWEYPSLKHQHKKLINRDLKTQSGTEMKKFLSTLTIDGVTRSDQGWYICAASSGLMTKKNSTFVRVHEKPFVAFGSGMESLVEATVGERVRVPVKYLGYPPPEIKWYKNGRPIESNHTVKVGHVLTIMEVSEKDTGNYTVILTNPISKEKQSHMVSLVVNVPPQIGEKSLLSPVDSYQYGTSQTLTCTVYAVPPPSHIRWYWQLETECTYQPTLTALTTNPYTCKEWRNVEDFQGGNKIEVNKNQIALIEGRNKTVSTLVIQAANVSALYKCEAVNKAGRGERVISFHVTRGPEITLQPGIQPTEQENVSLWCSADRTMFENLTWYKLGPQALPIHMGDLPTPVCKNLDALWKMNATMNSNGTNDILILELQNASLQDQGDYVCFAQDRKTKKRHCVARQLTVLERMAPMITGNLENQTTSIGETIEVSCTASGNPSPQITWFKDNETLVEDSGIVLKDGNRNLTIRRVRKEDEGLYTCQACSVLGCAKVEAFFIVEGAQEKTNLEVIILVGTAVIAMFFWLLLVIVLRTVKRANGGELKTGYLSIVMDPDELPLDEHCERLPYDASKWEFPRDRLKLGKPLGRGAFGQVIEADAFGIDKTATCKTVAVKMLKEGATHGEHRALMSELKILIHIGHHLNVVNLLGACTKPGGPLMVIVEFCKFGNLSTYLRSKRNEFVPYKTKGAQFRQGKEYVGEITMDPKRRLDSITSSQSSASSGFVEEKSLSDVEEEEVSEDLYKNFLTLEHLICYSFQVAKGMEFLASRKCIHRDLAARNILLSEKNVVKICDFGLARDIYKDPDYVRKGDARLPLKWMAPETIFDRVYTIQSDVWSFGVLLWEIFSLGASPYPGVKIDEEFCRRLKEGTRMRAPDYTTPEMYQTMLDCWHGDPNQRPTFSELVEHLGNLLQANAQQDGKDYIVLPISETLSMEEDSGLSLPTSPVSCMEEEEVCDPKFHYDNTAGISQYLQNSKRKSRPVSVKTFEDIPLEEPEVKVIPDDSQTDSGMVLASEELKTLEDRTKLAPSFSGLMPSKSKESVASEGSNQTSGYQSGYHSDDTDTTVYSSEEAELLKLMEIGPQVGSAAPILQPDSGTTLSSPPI

Molecule: KLTWMELYQLKYKGI (KLTWMELYQLKYKGI-NH2) [MK]
effect on VEGF anti-apoptotic activity (caspase 3) (HUVEC [1]): partially inhibited the effect of the growth factor

effect on VEGF anti-apoptotic activity (caspase 3) (HUVEC [1]): abolished
Molecule: KLTWMELYQLAYKGI (KLTWMELYQLAYKGI-NH2) [MA]
binding to HUVEC cells (HUVEC cells; fluorescein-conjugated peptide, FACS): specifically bound to the cells in a dose-dependent manner | levels of phosphorylated ERK1/2 kinase with VEGF in the presence of peptide (ERK1/2 kinase): highly reduced | annexin V+ cells (HUVEC [2]): > 22%

Molecule: VEGF165: Vascular Endothelial Growth Factor, most abundant isoform, 45 KDa glycoprotein (Alexis), positive control in Example 1
phospho-KDR levels (KDR): caused the reduction in the levels of phospho-KDR at the membrane | Flt-1 phosphorylation (Flt-1): increases Flt-1 phosphorylation | phosphorylation of the cyclin RB (RB): enhanced phosphorylation of the cyclin RB | BEADS Ischemic to non ischemic (WKY rats; dyed beads dilution, muscle ratio, infusion 10^-7 M): 0.97 ± 0.12 | ANGIOGRAPHY Number of TFC (WKY rats; ischemic hindlimb, chronic intrafemoral artery infusion 10^-7 M): 18 ± 2

B1: human recombinant VEGF: Human recombinant VEGF obtained from R&D, used in Example 2 on HUVEC (protein)
chain: APMAEGGGQNHHEVVKFMDVYQRSYCHPIETLVDIFQEYPDEIEYIFKPSCVPLMRCGGCCNDEGLECVPTEESNITMQIMRIKPHQGQHIGEMSFLQHNKCECRPKKDRARQENPCGPCSERRKHLFVQDPQTCKCSCKNTDSRCKARQLELNERTCRCDKPRR
competition with fluorescein-conjugated MA peptide on HUVEC (HUVEC cells; 500 nM MA peptide, increasing amount of VEGF, 4° C.): appeared to compete with MA peptide

Kd [3]: 0.316 nM
Molecule: Ac-KLTWQELYQLKYKGI-NH2 [QK peptide (SEQ ID No.8)]
